Columns and labels:
Lewis rats = assay: Endotoxin-induced uveitis (EIU): infiltrating cells and total protein in aqueous humor, histopathology; assay type: in vivo, rat; conditions: zopolrestat alone, no LPS
Method: (§1) Six to eight-weeks-old male Lewis rats weighing approximately 150-160 g were used in this study (n=6). All animals were kept in the UTMB's Animal Care Center. All the animal studies were conducted in compliance with the ARVO statement for the use of Animals in Ophthalmic and Vision Research. EIU was induced by a subcutaneous injection of Escherichia coli LPS (200 μg) dissolved in phosphate-buffered saline (PBS, pH 7.4). Rats in ART and ETU+ARI groups were injected intraperitoneally with AR inhibitor zopolrestat (25 mg/kg body weight) dissolved in dimethyl-sulfoxide (DMSO) 24 h before and immediately after LPS injection. Rats of control group received carrier (PBS+20% DMSO) injection.
The rats were euthanized after 3, 6, and 24 h after LPS injection and the aqueous humor (AqH) was collected immediately from eye by an anterior chamber puncture using a 30-gauge needle under the surgical microscope. For cell counting, the AqH samples were suspended in an equal amount of Trypan-blue solution, and the cells were counted using a Hemocytometer under a light microscope (Olympus Optical Ltd). The total protein concentration in the AqH samples was measured using a Biorad protein assay kit (Biorad, CA, USA). The AqH samples were stored in ice water until testing, cell counts and total protein concentrations were measured on the day of sample collection. […]

[1] = test system: TNF-α, NO and PGE2 in aqueous humor; assay: EIU: TNF-α, NO and PGE2 in aqueous humor (ELISA kits); assay type: in vivo, rat; conditions: 6 and 24 h after EIU-induction
Method: as §1
The levels of TNF-α in the AqH (stored at −80° C.) were assessed with commercially available ELISA kit, according to the manufacturer's instructions. The total level of nitrate plus nitrite in the AqH was measured by using a total nitrite colorimetric assay ([…]) kit according to the manufacturer's instructions. PGE2 production was measured by enzyme immunoassay kit following the manufacturer's instructions.

[2] = test system: COX-2, iNOS, Bcl-XL, Bax, cyclin D1, E2F2; assay: RW-induced inflammatory, apoptosis and cell cycle proteins in SAEC (Western blot); assay type: cell-based, human; conditions: RW 50 μg/ml, 24 h
Source text: Fourty micrograms of cytoplasmic protein extracts, prepared as described earlier were resolved on 10% SDS-PAGE. After electrophoresis, the proteins were electro transferred to a nitrocellulose membrane, blocked with 5% nonfat milk in TBST, and probed with antibodies against COX-2, NOS2, Bcl-xL, Bax, cyclin D1, E2F2 (1:1,000 dilution) for 2 hr. The blot was then washed, exposed to HRP-conjugated secondary antibodies (1:5,000 dilution) for 1 hr, and the antigen-antibody complex was detected by enhanced chemiluminescence (Amersham Pharmacia Biotech, Piscataway, N.J., USA).

[3] = test system: IL-6, IL-8 and Cox-2 mRNA; assay: TNF-α- and LPS-induced IL-6, IL-8 and Cox-2 mRNA in SAEC (RT-PCR); assay type: cell-based, human; conditions: TNF-α 2 nM or LPS 1 μg/ml, 6 h
Method: The SAEC were grown in 6-well plates at a density of approximately 3.0×10^5 cells/well. After approximately 80% confluence cells were serum-starved in the presence or absence of sorbinil (20 μM) or carrier for 24 h and then stimulated with either TNF-α (2 nM) or LPS (1 μg/mL). Total RNA from SAEC was isolated by using RNeasy kit (Qiagen) as per supplier's instructions. Aliquots of RNA (0.5-1.0 μg) isolated from each sample were reverse transcribed with Omniscript and Sensiscript reverse transcriptase one-step RT-PCR system with HotStar Taq DNApolymerase (Qiagen) at 55° C. for 30 min followed by PCR amplification. The oligonucleotide primer sequences were as follows: 5′-[…]-3′ (SEQ ID NO:3) (sense) and 5′-[…]-3′ (SEQ ID NO:4) (antisense) for IL-6; 5′-[…]-3′ (SEQ ID NO:5) (sense) and 5′-TCT […]-3′ (SEQ ID NO:6) (antisense) for IL-8; 5′-TGAAACCCACTCCA AACACAG-3′ (SEQ ID NO:7) (sense) and 5′-[…]-3′ (SEQ ID NO:8) (antisense) for Cox-2; and 5′-[…]-3′ (SEQ ID NO:9) (sense) and 5′-CGTC […]-3′ (SEQ ID NO:10) (antisense) for β-actin. PCR was carried out in a PCR Sprint thermal cycler (Thermo electron corporation, Milford, Mass.) under the following conditions: initial denaturation at 95° C. for 15 min followed by 35 cycles of 94° C. 1 min, 62° C. 1 min, 72° C. 1 min, and then 72° C. 10 min for final extension. […]

NF-κB = assay: NF-κB-dependent SEAP reporter assay in TNF-α- or LPS-treated SAEC; assay type: cell-based, human
Method: SAEC cells (1×10^5 cells/well) were plated in 24-well plates, serum starved in basal medium with AR inhibitor, sorbinil and zopolrestate (20 μM) or carrier for 24 h, and transiently transfected with pNF-κB-secretory alkaline phosphatase (SEAP) construct or control plasmid pTALSEAP DNA (Clontech, Palo Alto, Calif.) using the LipofectAMINE Plus reagent. After 6 hours of transfection medium was replaced with fresh medium and cells were incubated with either TNF-α (2 nM) or LPS (1 μg/mL) or carrier for 48 h. The cell culture medium was then harvested and analyzed for SEAP activity, essentially as described by the manufacturer (Clontech, Palo Alto, Calif.), using a 96-well chemiluminescence plate reader.

O=C(O)Cc1nn(Cc2nc3cc(C(F)(F)F)ccc3s2)c(=O)c2ccccc12 [zopolrestat] was tested, and the “infiltration of cells, H&E sections, compound alone” value (Lewis rats) was “No significant infiltration of cells”, the “reduction of TNF-α concentration in AqH” value [1] was greater than 60% and the “RW-induced increase of COX-2 and iNOS protein expression” value [2] was “significantly prevented the increase”. The “prevention of RW-induced increase in expression of cyclin D1 and E2F2” value [2] was greater than 90%, the “prevention of TNF-α- and LPS-induced increase of Cox-2 mRNA levels” value [3] was greater than 60% and the inhibition at 20 µM (NF-κB; Homo sapiens, SAEC, AR inhibitor 20 μM, TNF-α 2 nM or LPS 1 μg/mL, 48 h, read-out: inhibition of TNF-α- and LPS-induced NF-κB-dependent SEAP activation) was greater than 60%. For the same compound, the “basal NF-κB-SEAP activity, compound alone” value (NF-κB; no TNF-α or LPS) was “did not affect”.
